“And” between values parts separate entries of the source, which are not always exact repeats. Equal entries are not always repeated.
What was measured:
[1] = target: T1, Prostaglandin G/H synthase 1 (Ovis aries, UniProt P05979); test: COX-1/COX-2 Inhibition Colorimetric Assay
T1 sequence (P05979 whole entry): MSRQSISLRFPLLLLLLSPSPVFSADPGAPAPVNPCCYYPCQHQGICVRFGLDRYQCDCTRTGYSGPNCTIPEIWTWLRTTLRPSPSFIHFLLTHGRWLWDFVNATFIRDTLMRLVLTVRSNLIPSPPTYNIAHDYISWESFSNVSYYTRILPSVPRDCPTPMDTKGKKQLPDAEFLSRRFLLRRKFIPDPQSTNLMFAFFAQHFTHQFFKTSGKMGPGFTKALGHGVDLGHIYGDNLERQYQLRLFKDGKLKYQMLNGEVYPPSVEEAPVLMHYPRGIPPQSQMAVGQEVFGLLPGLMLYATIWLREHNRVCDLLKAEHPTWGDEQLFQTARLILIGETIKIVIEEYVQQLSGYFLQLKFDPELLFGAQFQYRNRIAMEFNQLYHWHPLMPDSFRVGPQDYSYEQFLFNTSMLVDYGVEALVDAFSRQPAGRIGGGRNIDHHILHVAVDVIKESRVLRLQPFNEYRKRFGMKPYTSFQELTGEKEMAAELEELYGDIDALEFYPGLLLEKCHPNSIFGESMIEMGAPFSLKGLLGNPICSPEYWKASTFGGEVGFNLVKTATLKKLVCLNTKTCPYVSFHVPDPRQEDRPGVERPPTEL
Method: (§1) The in vitro inhibition of ovine COX-1 and COX-2 was measured using an enzyme immuno assay (EIA) kit (Cayman Chemical, Ann Arbor, MI, USA) according to the manufacturer's instructions and as reported before [Roschek et al., J. Med. Food., 12:615-623].

[2] = target: T2, Prostaglandin G/H synthase 2 (Ovis aries, UniProt P79208); test: COX-1/COX-2 Inhibition Colorimetric Assay
T2 sequence (P79208 whole entry): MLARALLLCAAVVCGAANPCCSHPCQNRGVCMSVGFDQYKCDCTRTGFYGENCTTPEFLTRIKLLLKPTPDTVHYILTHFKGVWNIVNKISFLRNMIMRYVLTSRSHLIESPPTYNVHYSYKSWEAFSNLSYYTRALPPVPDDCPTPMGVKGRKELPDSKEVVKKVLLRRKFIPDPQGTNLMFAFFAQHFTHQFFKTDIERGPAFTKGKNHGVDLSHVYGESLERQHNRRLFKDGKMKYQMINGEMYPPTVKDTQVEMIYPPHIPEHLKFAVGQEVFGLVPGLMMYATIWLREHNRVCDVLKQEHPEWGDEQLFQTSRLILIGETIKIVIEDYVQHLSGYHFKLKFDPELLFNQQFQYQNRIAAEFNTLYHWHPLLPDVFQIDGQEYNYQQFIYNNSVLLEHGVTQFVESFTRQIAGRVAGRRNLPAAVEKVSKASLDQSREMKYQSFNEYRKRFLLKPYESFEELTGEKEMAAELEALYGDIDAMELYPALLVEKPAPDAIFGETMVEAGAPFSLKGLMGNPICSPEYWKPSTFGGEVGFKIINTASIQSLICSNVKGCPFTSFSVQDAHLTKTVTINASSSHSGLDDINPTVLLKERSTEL
Method: as §1

Compound: COc1ccc(C2CC(c3ccc(Cl)cc3)=NN2c2ccc(S(N)(=O)=O)cc2)cc1 (configuration not stated)
- IC50 [1]: 6.52 µM
- IC50 [2]: 0.74 µM

Compound: CS(=O)(=O)c1ccc(N2N=C(c3ccc(Cl)cc3)CC2c2ccc(Cl)cc2)cc1 (configuration not stated) [3,5-Bis-(4-chloro-phenyl)-1-(4-methanesulfonyl-phenyl)-4,5-dihydro-1H-pyrazole (10j)]
- IC50 [1]: 9.89 µM
- IC50 [2]: 1.52 µM

Compound: COc1cc(C2CC(c3ccc(Br)cc3)=NN2c2ccc(S(C)(=O)=O)cc2)cc(OC)c1OC (configuration not stated) [3-(4-Bromo-phenyl)-1-(4-methanesulfonyl-phenyl)-5-(3,4,5-trimethoxy-phenyl)-4,5-dihydro-1H-pyrazole (10g)]
- IC50 [1]: 8.65 µM
- IC50 [2]: 0.98 µM

Compound: COc1ccc(C2CC(c3ccc(Br)cc3)=NN2c2ccc(S(C)(=O)=O)cc2)cc1 (configuration not stated) [3-(4-Bromo-phenyl)-1-(4-methanesulfonyl-phenyl)-5-(4-methoxy-phenyl)-4,5-dihydro-1H-pyrazole (10k)]
- IC50 [1]: 4.85 µM
- IC50 [2]: 0.63 µM

Compound: COc1cc(C2CC(c3ccc(Cl)cc3)=NN2c2ccc(S(C)(=O)=O)cc2)cc(OC)c1OC (configuration not stated) [3-(4-Chloro-phenyl)-1-(4-methanesulfonyl-phenyl)-5-(3,4,5-trimethoxy-phenyl)-4,5-dihydro-1H-pyrazole (10h)]
- IC50 [1]: 3.87 µM and 8.34 µM
- IC50 [2]: 0.42 µM and 2.98 µM

Compound: COc1ccc(C2CC(c3ccc(Cl)cc3)=NN2c2ccc(S(C)(=O)=O)cc2)cc1 (configuration not stated) [3-(4-Chloro-phenyl)-1-(4-methanesulfonyl-phenyl)-5-(4-methoxy-phenyl)-4,5-dihydro-1H-pyrazole (10l)]
- IC50 [1]: 10.2 µM
- IC50 [2]: 3.41 µM

Compound: COc1cc(C2CC(c3ccc(Br)cc3)=NN2c2ccc(S(N)(=O)=O)cc2)cc(OC)c1OC (configuration not stated) [4-[3-(4-Bromo-phenyl)-5-(3,4,5-trimethoxy-phenyl)-4,5-dihydropyrazol-1-yl]-benzene-sulfonamide (10a)]
- IC50 [1]: 7.52 µM
- IC50 [2]: 0.78 µM

Compound: NS(=O)(=O)c1ccc(N2N=C(c3ccc(Br)cc3)CC2c2ccc(Cl)cc2)cc1 (configuration not stated) [4-[3-(4-Bromo-phenyl)-5-(4-chloro-phenyl)-4,5-dihydro-pyrazol-1-yl]-benzene-sulfonamide (10c)]
- IC50 [1]: 6.87 µM
- IC50 [2]: 1.43 µM

Compound: COc1cc(C2CC(c3ccc(Cl)cc3)=NN2c2ccc(S(N)(=O)=O)cc2)cc(OC)c1OC (configuration not stated) [4-[3-(4-Chloro-phenyl)-5-(3,4,5-trimethoxy-phenyl)-4,5-dihydropyrazol-1-yl]-benzene-sulfonamide (10b)]
- IC50 [1]: 3.41 µM
- IC50 [2]: 0.22 µM

Compound: NS(=O)(=O)c1ccc(N2N=C(c3ccc(Cl)cc3)CC2c2ccc(Cl)cc2)cc1 (configuration not stated) [4-[3-(4-Chloro-phenyl)-5-(4-chloro-phenyl)-4,5-dihydro-pyrazol-1-yl]-benzene-sulfonamide (10d)]
- IC50 [1]: 5.11 µM
- IC50 [2]: 0.9 µM

Compound: COc1ccc(C2CC(c3ccc(Br)cc3)=NN2c2ccc(S(N)(=O)=O)cc2)cc1 (configuration not stated) [UNM-0000306138]
- IC50 [1]: 5.17 µM
- IC50 [2]: 0.63 µM
